Test results published in patent EP0485111A2, “The use of lipoxygenase and cyclooxygenase inhibitors as synergistic agents” (ZENECA LIMITED, priority 1990, dated 1992).

Test system: arachidonic acid induced inflammatory response
Assay: arachidonic acid induced mouse ear inflammatory oedema test (mouse ear inflammatory model), oral dosing
Type: in vivo
Settings: for inhibition in vivo at 3 mg/kg / inhibition in vivo at 10 mg/kg / inhibition in vivo at 30 mg/kg / inhibition in vivo at 1 mg/kg: Mus musculus, po; for inhibition (anti-inflammatory effect of the CO inhibitors): CO inhibitor alone at 1-10 mg/kg orally
Experimental: According to the test method, groups of 10 mice (25-30 g each) were dosed orally with vehicle alone (a mixture of 0.5% hydroxypropylmethylcellulose, 0.1% polysorbate 80 and water), with the 5-LO inhibitor alone, with a CO-inhibitor alone, or with a combination of 5-LO and CO inhibitors. After a period of 1 hour arachidonic acid (1 mg in 10 microlitres of acetone) was applied topically to one ear of each mouse. After a further period of 1 hour the mice were killed and a disc-shaped portion (6 mm in diameter) was punched from each ear. Comparison of the weights of the ear-discs between the arachidonic acid treated and untreated ears allows the effect of each treatment to be determined. The effect of each test compound or combination of compounds is calculated as follows ('ear weight diff.' means the mean difference in the weights of the disc-shaped portions of ear punched from the arachidonic acid-treated ear compared to the untreated ear for each mouse):- [table]

[1] = summary of Examples 1 to 10, variable

## CC(C(=O)O)c1ccc(-c2ccccc2)c(F)c1 (stereo not shown) [F, flurbiprofen, reference compound]
Ex 6, F 3 mg/kg orally alone ([1] 0 mg/kg)
  inhibition in vivo at 3 mg/kg: 14.6%
Ex 7, F 3 mg/kg orally alone ([1] 0 mg/kg)
  inhibition in vivo at 3 mg/kg: 7.6%
[1]
  inhibition (anti-inflammatory effect of the CO inhibitors): 0 to 55%

## COC1(c2cc(F)cc(Sc3ccc(C(F)(F)c4ccc(F)cc4)cc3)c2)CCOCC1 [[5], 4-[5-fluoro-3-(4-(4-fluoro-alpha,alpha-difluorobenzyl)phenylthio)phenyl]-4-methoxytetrahydropyran]
Ex 15, [5] 3 mg/kg orally alone, asterisk (*): not statistically significant
  inhibition in vivo at 3 mg/kg: 11%
Ex 15, [5] 10 mg/kg orally alone, asterisk (*): not statistically significant
  inhibition in vivo at 10 mg/kg: 16%
Ex 15, [5] 30 mg/kg orally alone, asterisk (*): not statistically significant
  inhibition in vivo at 30 mg/kg: 17%

## O=C(O)Cc1ccccc1Nc1c(Cl)cccc1Cl [D, diclofenac, reference compound]
Ex 8, D 3 mg/kg orally alone
  inhibition in vivo at 3 mg/kg: 11.1%
Ex 8, D 30 mg/kg orally alone
  inhibition in vivo at 30 mg/kg: 11.4%
Ex 9, D 3 mg/kg orally alone
  inhibition in vivo at 3 mg/kg: 5.9%
Ex 9, D 10 mg/kg orally alone
  inhibition in vivo at 10 mg/kg: 4.9%
Ex 9, D 30 mg/kg orally alone
  inhibition in vivo at 30 mg/kg: 17.8%
Ex 10, D 10 mg/kg orally alone
  inhibition in vivo at 10 mg/kg: 7.4%
Ex 10, D 30 mg/kg orally alone
  inhibition in vivo at 30 mg/kg: 10.5%
[1]
  inhibition (anti-inflammatory effect of the CO inhibitors): 0 to 55%

## COc1ccc2c(c1)c(CC(=O)O)c(C)n2C(=O)c1ccc(Cl)cc1 [I, indomethacin, reference compound]
Ex 1, I 10 mg/kg orally alone ([1] 0 mg/kg)
  inhibition in vivo at 10 mg/kg: 16.9%
Ex 2, I 10 mg/kg orally alone ([1] 0 mg/kg)
  inhibition in vivo at 10 mg/kg: 27.4%
Ex 3, I 3 mg/kg orally alone ([1] 0 mg/kg)
  inhibition in vivo at 3 mg/kg: 12.8%
Ex 4, I 3 mg/kg orally alone
  inhibition in vivo at 3 mg/kg: 15.3%
Ex 4, I 10 mg/kg orally alone
  inhibition in vivo at 10 mg/kg: 55.3%
Ex 5, I 3 mg/kg orally alone
  inhibition in vivo at 3 mg/kg: 18.2%
Ex 5, I 10 mg/kg orally alone
  inhibition in vivo at 10 mg/kg: 55.6%
Ex 11, I 10 mg/kg orally alone ([2] 0 mg/kg)
  inhibition in vivo at 10 mg/kg: 30%
Ex 12, I 1 mg/kg orally alone
  inhibition in vivo at 1 mg/kg: 13%
Ex 12, I 3 mg/kg orally alone
  inhibition in vivo at 3 mg/kg: 27%
Ex 12, I 10 mg/kg orally alone
  inhibition in vivo at 10 mg/kg: 33%
Ex 13, I 10 mg/kg orally alone ([3] 0 mg/kg), asterisk (*): not statistically significant
  inhibition in vivo at 10 mg/kg: 10%
Ex 14, I 10 mg/kg orally alone ([4] 0 mg/kg), asterisk (*): not statistically significant
  inhibition in vivo at 10 mg/kg: -2.5%
Ex 15, I 10 mg/kg orally alone ([5] 0 mg/kg)
  inhibition in vivo at 10 mg/kg: 27%
[1]
  inhibition (anti-inflammatory effect of the CO inhibitors): 0 to 55%

## COC1(c2cc(F)cc(OCc3ccc4c(ccc(=O)n4C)c3)c2)CCOCC1 [[1], 6-[(3-fluoro-5-[4-methoxy-3,4,5,6-tetrahydro-2H-pyran-4-yl]phenoxy)methyl]-1-methyl-2-quinolone]
Ex 1, [1] 1 mg/kg orally alone
  inhibition in vivo at 1 mg/kg: 14.6%
Ex 1, [1] 3 mg/kg orally alone
  inhibition in vivo at 3 mg/kg: 19.1%
Ex 1, [1] 10 mg/kg orally alone
  inhibition in vivo at 10 mg/kg: 47.2%
Ex 2, [1] 3 mg/kg orally alone
  inhibition in vivo at 3 mg/kg: 9.5%
Ex 2, [1] 10 mg/kg orally alone
  inhibition in vivo at 10 mg/kg: 0.5%
Ex 3, [1] 3 mg/kg orally alone
  inhibition in vivo at 3 mg/kg: 0%
Ex 3, [1] 10 mg/kg orally alone
  inhibition in vivo at 10 mg/kg: 15.6%
Ex 4, [1] 10 mg/kg orally alone (I 0 mg/kg)
  inhibition in vivo at 10 mg/kg: 44.4%
Ex 5, [1] 10 mg/kg orally alone (I 0 mg/kg)
  inhibition in vivo at 10 mg/kg: 15.2%
Ex 6, [1] 1 mg/kg orally alone
  inhibition in vivo at 1 mg/kg: 16.7%
Ex 6, [1] 3 mg/kg orally alone
  inhibition in vivo at 3 mg/kg: 20.8%
Ex 6, [1] 10 mg/kg orally alone
  inhibition in vivo at 10 mg/kg: 15.6%
Ex 7, [1] 1 mg/kg orally alone
  inhibition in vivo at 1 mg/kg: 16.2%
Ex 7, [1] 3 mg/kg orally alone
  inhibition in vivo at 3 mg/kg: 13.3%
Ex 7, [1] 10 mg/kg orally alone
  inhibition in vivo at 10 mg/kg: 11.4%
Ex 8, [1] 10 mg/kg orally alone (D 0 mg/kg)
  inhibition in vivo at 10 mg/kg: 12.5%
Ex 9, [1] 10 mg/kg orally alone (D 0 mg/kg)
  inhibition in vivo at 10 mg/kg: 25.7%
Ex 10, [1] 10 mg/kg orally alone (D 0 mg/kg)
  inhibition in vivo at 10 mg/kg: 3.2%
Summary of Examples 1 to 10, 5-LO inhibitor alone at 1-10 mg/kg orally, variable
  inhibition (anti-inflammatory effect of the 5-LO inhibitor): 0 to 47%

## COC1(c2cc(F)cc(Sc3ccc4c(c3)OCC(=O)N4C)c2)CCOCC1 [[2], 4-[5-fluoro-3-(4-methyl-3-oxo-2,3-dihydro-4H-1,4-benzoxazin-7-ylthio)phenyl]-4-methoxytetrahydropyran]
Ex 11, [2] 3 mg/kg orally alone
  inhibition in vivo at 3 mg/kg: 15%
Ex 11, [2] 10 mg/kg orally alone
  inhibition in vivo at 10 mg/kg: 22%
Ex 11, [2] 30 mg/kg orally alone
  inhibition in vivo at 30 mg/kg: 34%
Ex 12, [2] 30 mg/kg orally alone (I 0 mg/kg)
  inhibition in vivo at 30 mg/kg: 27%

## COC1(c2cc(F)cc(Sc3ccc4c(c3)CCC(=O)N4C)c2)CCOCC1 [[4], 4-[5-fluoro-3-(1-methyl-2-oxo-1,2,3,4-tetrahydroquinolin-6-ylthio)phenyl]-4-methoxytetrahydropyran]
Ex 14, [4] 3 mg/kg orally alone, asterisk (*): not statistically significant
  inhibition in vivo at 3 mg/kg: 5%
Ex 14, [4] 10 mg/kg orally alone
  inhibition in vivo at 10 mg/kg: 21%
Ex 14, [4] 30 mg/kg orally alone
  inhibition in vivo at 30 mg/kg: 22%

## COC1(c2ccc(Sc3ccc4c(c3)CCC(=O)N4C)s2)CCOCC1 [[3], 4-methoxy-4-[5-(1-methyl-2-oxo-1,2,3,4-tetrahydroquinolin-6-ylthio)thien-2-yl]tetrahydropyran]
Ex 13, [3] 3 mg/kg orally alone, asterisk (*): not statistically significant
  inhibition in vivo at 3 mg/kg: 17%
Ex 13, [3] 10 mg/kg orally alone
  inhibition in vivo at 10 mg/kg: 15%
Ex 13, [3] 30 mg/kg orally alone, asterisk (*): not statistically significant
  inhibition in vivo at 30 mg/kg: 20%
